For one compound, residual activity and activity results are on record in ChEMBL document CHEMBL4507276 (2021).

Data set [1] has as its target Voltage-dependent N-type calcium channel subunit alpha-1B (Rattus norvegicus) (UniProt Q02294). The data set is described as follows: CA+/N/RA Eurofins-Panlabs selectivity data (BI). As to conditions: Compound concentration 10.0 uM; call rule not given here.
The target in data set [2] is T1, Mitogen-activated protein kinase kinase kinase 5 (Homo sapiens) (UniProt Q99683).
T1 sequence (whole entry): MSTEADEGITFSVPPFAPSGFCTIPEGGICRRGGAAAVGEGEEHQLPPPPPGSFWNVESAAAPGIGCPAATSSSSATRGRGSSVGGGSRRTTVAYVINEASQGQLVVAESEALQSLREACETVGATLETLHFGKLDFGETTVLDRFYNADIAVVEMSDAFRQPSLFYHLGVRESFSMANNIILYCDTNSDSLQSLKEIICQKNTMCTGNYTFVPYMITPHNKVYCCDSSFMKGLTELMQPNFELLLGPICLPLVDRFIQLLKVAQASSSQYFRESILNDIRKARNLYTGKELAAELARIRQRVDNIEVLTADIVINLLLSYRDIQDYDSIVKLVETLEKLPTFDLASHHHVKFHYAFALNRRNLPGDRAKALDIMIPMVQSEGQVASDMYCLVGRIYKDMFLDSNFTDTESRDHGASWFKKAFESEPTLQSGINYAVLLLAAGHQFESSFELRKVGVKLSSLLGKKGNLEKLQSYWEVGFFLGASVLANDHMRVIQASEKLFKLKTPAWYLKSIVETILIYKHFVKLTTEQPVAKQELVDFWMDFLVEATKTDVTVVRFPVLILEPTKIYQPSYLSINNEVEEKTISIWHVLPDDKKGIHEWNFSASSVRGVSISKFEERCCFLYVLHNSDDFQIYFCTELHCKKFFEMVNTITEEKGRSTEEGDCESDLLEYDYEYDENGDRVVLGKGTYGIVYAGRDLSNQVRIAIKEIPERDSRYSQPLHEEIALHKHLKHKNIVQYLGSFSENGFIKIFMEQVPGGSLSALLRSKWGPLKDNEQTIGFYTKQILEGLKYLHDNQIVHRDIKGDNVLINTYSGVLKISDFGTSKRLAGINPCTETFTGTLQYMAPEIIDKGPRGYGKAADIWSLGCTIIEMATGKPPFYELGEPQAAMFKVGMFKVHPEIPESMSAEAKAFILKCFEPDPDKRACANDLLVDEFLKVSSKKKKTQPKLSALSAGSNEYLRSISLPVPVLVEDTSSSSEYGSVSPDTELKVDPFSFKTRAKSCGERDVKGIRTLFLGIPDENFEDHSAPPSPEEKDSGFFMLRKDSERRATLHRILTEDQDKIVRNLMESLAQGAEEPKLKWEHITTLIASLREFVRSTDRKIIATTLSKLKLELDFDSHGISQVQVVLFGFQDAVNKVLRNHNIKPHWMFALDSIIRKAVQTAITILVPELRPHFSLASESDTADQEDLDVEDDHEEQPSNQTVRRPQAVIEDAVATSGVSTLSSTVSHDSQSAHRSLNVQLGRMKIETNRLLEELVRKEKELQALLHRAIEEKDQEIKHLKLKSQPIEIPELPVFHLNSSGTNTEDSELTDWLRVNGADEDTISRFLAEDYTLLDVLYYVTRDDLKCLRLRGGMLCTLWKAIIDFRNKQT
Description: MAP3K5 Invitrogen selectivity data (BI). The following applies: Compound concentration 3.0 uM.

For data set [3], the target named is Tyrosine-protein kinase ABL2 (Homo sapiens) (UniProt P42684). Description: ABL2 Invitrogen selectivity data (BI). As to conditions: Compound concentration 3.0 uM.
Sequence of Tyrosine-protein kinase ABL2 (Homo sapiens) (P42684 whole entry): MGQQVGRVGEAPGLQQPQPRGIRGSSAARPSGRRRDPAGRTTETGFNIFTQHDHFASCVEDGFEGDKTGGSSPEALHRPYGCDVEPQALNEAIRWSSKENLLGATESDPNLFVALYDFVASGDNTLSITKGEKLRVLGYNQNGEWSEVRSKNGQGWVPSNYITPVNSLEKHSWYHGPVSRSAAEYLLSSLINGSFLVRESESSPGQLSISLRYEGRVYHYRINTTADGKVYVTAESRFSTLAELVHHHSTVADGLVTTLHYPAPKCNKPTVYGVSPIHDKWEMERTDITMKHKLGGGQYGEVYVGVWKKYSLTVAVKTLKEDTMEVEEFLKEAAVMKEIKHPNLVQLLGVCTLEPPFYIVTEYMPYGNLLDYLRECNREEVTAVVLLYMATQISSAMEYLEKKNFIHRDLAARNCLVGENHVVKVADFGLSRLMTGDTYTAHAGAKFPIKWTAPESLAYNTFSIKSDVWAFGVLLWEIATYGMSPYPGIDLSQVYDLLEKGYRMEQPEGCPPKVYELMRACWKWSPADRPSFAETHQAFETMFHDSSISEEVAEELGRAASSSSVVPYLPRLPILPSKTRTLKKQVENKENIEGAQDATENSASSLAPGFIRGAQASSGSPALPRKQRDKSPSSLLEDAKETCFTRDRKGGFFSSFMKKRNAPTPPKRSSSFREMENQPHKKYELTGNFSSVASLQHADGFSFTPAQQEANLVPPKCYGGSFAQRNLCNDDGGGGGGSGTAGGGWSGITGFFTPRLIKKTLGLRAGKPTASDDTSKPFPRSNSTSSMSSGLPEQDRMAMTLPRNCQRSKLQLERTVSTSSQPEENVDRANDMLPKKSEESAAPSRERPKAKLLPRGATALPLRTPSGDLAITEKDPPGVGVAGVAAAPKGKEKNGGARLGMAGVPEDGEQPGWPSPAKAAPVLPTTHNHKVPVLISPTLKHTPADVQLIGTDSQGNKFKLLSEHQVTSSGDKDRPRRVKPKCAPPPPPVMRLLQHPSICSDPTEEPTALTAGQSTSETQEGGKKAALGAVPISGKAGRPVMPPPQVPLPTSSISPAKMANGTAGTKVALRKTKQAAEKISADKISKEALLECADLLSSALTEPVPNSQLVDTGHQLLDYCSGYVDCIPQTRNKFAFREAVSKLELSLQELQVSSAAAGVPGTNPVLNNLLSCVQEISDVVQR
For data set [4], the target named is T2, Serine/threonine-protein kinase 17A (Homo sapiens) (UniProt Q9UEE5).
T2 sequence (whole entry): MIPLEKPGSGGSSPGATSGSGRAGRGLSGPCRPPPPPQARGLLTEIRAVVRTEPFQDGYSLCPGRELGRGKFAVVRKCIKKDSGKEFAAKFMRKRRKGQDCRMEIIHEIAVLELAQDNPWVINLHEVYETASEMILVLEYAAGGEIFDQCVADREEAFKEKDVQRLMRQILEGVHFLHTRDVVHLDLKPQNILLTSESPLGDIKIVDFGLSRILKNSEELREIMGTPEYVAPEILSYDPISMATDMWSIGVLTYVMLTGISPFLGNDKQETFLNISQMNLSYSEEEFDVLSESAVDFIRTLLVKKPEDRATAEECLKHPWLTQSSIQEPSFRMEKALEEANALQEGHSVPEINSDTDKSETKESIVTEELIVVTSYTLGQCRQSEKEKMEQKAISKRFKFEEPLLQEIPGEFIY
Description: STK17A Invitrogen selectivity data (BI). The following applies: Compound concentration 3.0 uM.

In data set [5] the target is MAO-A (amine oxidase [flavin-containing] A) (Rattus norvegicus, UniProt P21396). The data set is described as follows: MAO-A_ANTAG Cerep selectivity data (BI). Set-up: mode of action antagonist; scale not given: the % may be the effect or the level left. The following applies: compound concentration 20 uM, read-out: % Ctrl.
Sequence of MAO-A (amine oxidase [flavin-containing] A) (P21396 whole entry): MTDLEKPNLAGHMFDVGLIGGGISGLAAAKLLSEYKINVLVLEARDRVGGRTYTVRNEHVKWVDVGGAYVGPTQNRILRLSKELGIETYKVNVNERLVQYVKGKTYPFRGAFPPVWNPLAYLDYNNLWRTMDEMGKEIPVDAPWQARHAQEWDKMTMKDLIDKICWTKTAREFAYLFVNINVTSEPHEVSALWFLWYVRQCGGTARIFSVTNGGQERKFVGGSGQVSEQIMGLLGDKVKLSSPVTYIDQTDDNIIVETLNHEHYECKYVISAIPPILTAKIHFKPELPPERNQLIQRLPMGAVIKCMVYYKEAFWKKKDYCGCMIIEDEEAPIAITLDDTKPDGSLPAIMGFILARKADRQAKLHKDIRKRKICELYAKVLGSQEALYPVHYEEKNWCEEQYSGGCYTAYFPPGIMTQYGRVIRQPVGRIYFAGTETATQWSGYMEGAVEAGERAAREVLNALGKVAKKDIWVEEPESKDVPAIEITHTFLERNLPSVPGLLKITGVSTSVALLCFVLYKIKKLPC
In data set [6] the target is Fibroblast growth factor receptor 4 (Homo sapiens) (UniProt P22455). The data set is described as follows: FGFR4 Invitrogen selectivity data (BI). As to conditions: Compound concentration 3.0 uM.
In data set [7] the target is Dual specificity protein kinase CLK3 (Homo sapiens) (UniProt P49761). Description: CLK3 Invitrogen selectivity data (BI). The following applies: Compound concentration 3.0 uM.
Sequence of Dual specificity protein kinase CLK3 (Homo sapiens) (P49761 whole entry, looked up): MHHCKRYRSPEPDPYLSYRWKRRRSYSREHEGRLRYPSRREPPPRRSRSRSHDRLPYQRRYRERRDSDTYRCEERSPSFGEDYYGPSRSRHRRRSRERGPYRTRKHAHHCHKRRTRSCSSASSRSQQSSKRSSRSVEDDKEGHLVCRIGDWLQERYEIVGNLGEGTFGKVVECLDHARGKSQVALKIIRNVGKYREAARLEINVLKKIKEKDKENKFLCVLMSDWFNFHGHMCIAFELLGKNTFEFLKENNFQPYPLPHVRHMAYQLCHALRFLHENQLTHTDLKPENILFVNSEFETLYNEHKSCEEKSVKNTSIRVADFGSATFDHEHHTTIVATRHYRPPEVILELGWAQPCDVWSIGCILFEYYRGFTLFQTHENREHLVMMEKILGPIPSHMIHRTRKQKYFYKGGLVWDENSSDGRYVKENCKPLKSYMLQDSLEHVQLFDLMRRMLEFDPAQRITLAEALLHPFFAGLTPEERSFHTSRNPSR

The structures appear in SMILES notation.

Sequence of Voltage-dependent N-type calcium channel subunit alpha-1B (Rattus norvegicus) (Q02294 whole entry, looked up): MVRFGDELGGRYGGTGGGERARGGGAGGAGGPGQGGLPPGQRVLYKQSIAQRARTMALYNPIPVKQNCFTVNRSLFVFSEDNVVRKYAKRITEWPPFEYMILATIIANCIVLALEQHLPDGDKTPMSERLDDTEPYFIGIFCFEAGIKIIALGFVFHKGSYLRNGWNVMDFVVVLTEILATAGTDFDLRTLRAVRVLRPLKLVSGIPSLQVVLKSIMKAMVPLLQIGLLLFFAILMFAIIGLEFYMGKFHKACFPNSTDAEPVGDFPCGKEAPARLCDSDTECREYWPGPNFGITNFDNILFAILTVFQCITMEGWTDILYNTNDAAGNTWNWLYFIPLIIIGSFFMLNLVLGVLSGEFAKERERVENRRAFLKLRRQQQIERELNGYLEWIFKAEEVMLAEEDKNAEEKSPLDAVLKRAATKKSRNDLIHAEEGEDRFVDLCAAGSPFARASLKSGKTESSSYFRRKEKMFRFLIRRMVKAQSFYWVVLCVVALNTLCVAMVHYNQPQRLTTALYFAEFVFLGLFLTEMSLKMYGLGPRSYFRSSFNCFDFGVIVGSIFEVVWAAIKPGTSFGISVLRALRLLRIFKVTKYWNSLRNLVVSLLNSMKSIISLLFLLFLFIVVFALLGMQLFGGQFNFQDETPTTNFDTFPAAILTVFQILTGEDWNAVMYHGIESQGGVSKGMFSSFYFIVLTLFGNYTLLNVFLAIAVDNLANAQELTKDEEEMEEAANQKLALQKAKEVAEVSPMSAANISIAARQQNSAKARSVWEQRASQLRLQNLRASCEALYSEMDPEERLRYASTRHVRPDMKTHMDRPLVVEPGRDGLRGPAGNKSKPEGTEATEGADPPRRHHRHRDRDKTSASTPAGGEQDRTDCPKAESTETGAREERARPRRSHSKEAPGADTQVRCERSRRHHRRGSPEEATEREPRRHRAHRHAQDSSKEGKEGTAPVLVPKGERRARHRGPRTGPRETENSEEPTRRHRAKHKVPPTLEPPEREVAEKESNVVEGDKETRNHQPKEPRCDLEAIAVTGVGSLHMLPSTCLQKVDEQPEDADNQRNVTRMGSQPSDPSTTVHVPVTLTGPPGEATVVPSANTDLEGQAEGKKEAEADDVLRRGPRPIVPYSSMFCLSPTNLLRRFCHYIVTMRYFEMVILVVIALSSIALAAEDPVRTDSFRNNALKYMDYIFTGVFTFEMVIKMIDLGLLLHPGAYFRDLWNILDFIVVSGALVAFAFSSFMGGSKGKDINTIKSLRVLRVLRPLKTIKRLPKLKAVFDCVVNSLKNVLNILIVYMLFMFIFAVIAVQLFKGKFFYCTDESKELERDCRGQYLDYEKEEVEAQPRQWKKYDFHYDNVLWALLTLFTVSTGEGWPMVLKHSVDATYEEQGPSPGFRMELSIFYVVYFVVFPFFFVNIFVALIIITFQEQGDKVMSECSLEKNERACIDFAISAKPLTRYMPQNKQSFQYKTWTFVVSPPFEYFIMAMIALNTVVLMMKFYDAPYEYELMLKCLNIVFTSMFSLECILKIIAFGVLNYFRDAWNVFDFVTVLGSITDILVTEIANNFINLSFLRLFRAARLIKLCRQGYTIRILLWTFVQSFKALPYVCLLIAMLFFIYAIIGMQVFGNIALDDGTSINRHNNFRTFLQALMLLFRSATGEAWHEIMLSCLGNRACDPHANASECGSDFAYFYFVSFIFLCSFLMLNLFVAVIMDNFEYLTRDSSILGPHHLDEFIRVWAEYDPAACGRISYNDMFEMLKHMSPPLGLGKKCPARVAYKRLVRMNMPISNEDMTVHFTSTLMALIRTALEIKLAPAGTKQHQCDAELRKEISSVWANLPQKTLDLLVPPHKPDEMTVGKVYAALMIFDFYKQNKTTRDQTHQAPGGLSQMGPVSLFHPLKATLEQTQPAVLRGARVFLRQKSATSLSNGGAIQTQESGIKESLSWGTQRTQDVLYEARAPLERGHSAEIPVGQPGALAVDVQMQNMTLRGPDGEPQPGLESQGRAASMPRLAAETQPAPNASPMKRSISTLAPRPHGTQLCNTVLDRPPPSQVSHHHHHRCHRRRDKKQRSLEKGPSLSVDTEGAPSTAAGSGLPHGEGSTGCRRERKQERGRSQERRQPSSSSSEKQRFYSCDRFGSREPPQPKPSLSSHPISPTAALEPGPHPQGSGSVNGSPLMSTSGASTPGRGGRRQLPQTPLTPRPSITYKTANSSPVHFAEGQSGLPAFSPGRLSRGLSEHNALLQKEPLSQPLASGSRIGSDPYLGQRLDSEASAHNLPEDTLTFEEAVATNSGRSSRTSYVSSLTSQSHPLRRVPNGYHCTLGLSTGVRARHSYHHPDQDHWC

As for `CN(C)C(=O)Cn1cc(-c2nc([C@@](C)(c3ccc(-c4cnc(N)nc4)cc3)C3CC3)no2)cn1` [BI 665915], the residual activity in data set [1] is 95%; in data set [2] it was 99%; in data set [3], 79.5%; in data set [4] it was 96%; in data set [6], 96.5%; in data set [7], 95.5%. For the same compound, in data set [5], the activity at 20 µM is on record as 91% (not active).
